Assay results from paper PMC5053573, “Structure-Based Design of Tetrahydroisoquinoline-7-carboxamides as Selective Discoidin Domain Receptor 1 (DDR1) Inhibitors” (Journal of Medicinal Chemistry, 2016).

Columns and labels:
[1] = Pharmacokinetics study in SD rats; format: in vivo; settings: male, Sprague-Dawley, rat, whole blood, iv, 4 mg/kg, read-out: CL (L/hr/kg) in rats (converted)
[2] = target: T1, PFPK5(P.falciparum) (Plasmodium falciparum, UniProt P61075); assay: biochemical; settings: competition binding; read-out: %Ctrl @ 1000nM
T1 construct: gene CRK2

[3] = target: PKNB(M.tuberculosis) (Mycobacterium tuberculosis, UniProt P9WI81); assay: biochemical; settings: read-out: %Ctrl @ 1000nM
[4] = target: LTK (Homo sapiens, UniProt P29376); assay: biochemical; settings: competition binding; read-out: %Ctrl @ 1000nM
[5] = target: ABL1(H396P)-nonphosphorylated (Homo sapiens, UniProt P00519, H396P); assay: biochemical; settings: read-out: %Ctrl @ 1000nM
[6] = target: ALK (Homo sapiens, UniProt Q9UM73); assay: biochemical; settings: read-out: %Ctrl @ 1000nM
[7] = target: BMPR2 (Homo sapiens, UniProt Q13873); assay: biochemical; settings: read-out: %Ctrl @ 1000nM
[8] = target: CAMK2A (Homo sapiens, UniProt Q9UQM7); assay: biochemical; settings: read-out: %Ctrl @ 1000nM
[9] = target: CAMK2B (Homo sapiens, UniProt Q13554); assay: biochemical; settings: read-out: %Ctrl @ 1000nM
[10] = target: CDK3 (Homo sapiens, UniProt Q00526); assay: biochemical; settings: read-out: %Ctrl @ 1000nM
[11] = target: DAPK3 (Homo sapiens, UniProt O43293); assay: biochemical; settings: read-out: %Ctrl @ 1000nM
[12] = target: T2, DCAMKL3 (Homo sapiens, UniProt Q9C098); assay: biochemical; settings: read-out: %Ctrl @ 1000nM
T2 construct: gene DCLK3

[13] = target: DYRK1A (Homo sapiens, UniProt Q13627); assay: biochemical; settings: read-out: %Ctrl @ 1000nM
[14] = target: EGFR(L747-S752del, P753S) (Homo sapiens, UniProt P00533, DEL747-752/P753S); assay: biochemical; settings: read-out: %Ctrl @ 1000nM
[15] = target: EGFR(L858R,T790M) (Homo sapiens, UniProt P00533, L858R/T790M); assay: biochemical; settings: read-out: %Ctrl @ 1000nM
[16] = target: EPHB1 (Homo sapiens, UniProt P54762); assay: biochemical; settings: read-out: %Ctrl @ 1000nM
[17] = target: EPHB3 (Homo sapiens, UniProt P54753); assay: biochemical; settings: read-out: %Ctrl @ 1000nM
[18] = target: ERN1 (Homo sapiens, UniProt O75460); assay: biochemical; settings: read-out: %Ctrl @ 1000nM
[19] = target: GRK7 (Homo sapiens, UniProt Q8WTQ7); assay: biochemical; settings: read-out: %Ctrl @ 1000nM
[20] = target: T3, ICK (Homo sapiens, UniProt Q9UPZ9); assay: biochemical; settings: read-out: %Ctrl @ 1000nM
T3 construct: gene CILK1

[21] = target: T4, MLK3 (Homo sapiens, UniProt Q16584); assay: biochemical; settings: read-out: %Ctrl @ 1000nM
T4 construct: gene MAP3K11

[22] = target: T5, MRCKB (Homo sapiens, UniProt Q9Y5S2); assay: biochemical; settings: read-out: %Ctrl @ 1000nM
T5 construct: gene CDC42BPB

[23] = target: T6, MST3 (Homo sapiens, UniProt Q9Y6E0); assay: biochemical; settings: read-out: %Ctrl @ 1000nM
T6 construct: gene STK24

[24] = target: T7, MST4 (Homo sapiens, UniProt Q9P289); assay: biochemical; settings: read-out: %Ctrl @ 1000nM
T7 construct: gene STK26

[25] = target: NEK9 (Homo sapiens, UniProt Q8TD19); assay: biochemical; settings: read-out: %Ctrl @ 1000nM
[26] = target: T8, OSR1 (Homo sapiens, UniProt O95747); assay: biochemical; settings: read-out: %Ctrl @ 1000nM
T8 construct: gene OXSR1

[27] = target: PLK1 (Homo sapiens, UniProt P53350); assay: biochemical; settings: read-out: %Ctrl @ 1000nM
[28] = target: PRKCD (Homo sapiens, UniProt Q05655); assay: biochemical; settings: read-out: %Ctrl @ 1000nM
[29] = target: PRKG2 (Homo sapiens, UniProt Q13237); assay: biochemical; settings: read-out: %Ctrl @ 1000nM
[30] = target: T9, S6K1 (Homo sapiens, UniProt P23443); assay: biochemical; settings: read-out: %Ctrl @ 1000nM
T9 construct: gene RPS6KB1

[31] = target: T10, SGK (Homo sapiens, UniProt O00141); assay: biochemical; settings: read-out: %Ctrl @ 1000nM
T10 construct: gene SGK1

[32] = target: SRC (Homo sapiens, UniProt P12931); assay: biochemical; settings: read-out: %Ctrl @ 1000nM
[33] = target: TGFBR1 (Homo sapiens, UniProt P36897); assay: biochemical; settings: read-out: %Ctrl @ 1000nM
[34] = target: TNNI3K (Homo sapiens, UniProt Q59H18); assay: biochemical; settings: read-out: %Ctrl @ 1000nM
Sequence of TNNI3K (Q59H18 whole entry): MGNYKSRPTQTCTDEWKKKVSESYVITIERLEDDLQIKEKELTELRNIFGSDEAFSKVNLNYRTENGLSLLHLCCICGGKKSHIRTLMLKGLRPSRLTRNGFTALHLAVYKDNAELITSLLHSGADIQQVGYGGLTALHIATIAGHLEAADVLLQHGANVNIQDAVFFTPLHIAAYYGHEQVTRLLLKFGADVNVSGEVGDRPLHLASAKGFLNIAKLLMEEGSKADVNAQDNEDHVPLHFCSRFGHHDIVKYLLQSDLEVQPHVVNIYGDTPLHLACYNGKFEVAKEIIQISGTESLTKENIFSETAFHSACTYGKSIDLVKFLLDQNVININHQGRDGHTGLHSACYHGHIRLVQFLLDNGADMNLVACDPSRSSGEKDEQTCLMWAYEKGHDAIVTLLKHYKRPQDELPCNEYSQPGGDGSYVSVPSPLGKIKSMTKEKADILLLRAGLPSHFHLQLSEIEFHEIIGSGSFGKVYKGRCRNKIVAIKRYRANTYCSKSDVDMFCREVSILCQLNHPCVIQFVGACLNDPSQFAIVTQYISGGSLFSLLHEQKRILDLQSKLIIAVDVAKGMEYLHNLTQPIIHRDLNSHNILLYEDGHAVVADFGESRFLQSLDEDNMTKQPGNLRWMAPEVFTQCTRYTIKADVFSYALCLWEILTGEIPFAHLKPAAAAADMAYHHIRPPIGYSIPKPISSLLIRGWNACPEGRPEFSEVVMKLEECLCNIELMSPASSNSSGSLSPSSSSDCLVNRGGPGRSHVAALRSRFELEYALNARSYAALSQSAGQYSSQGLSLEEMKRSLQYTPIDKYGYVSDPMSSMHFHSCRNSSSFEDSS

Sequence of CAMK2A (Q9UQM7 whole entry): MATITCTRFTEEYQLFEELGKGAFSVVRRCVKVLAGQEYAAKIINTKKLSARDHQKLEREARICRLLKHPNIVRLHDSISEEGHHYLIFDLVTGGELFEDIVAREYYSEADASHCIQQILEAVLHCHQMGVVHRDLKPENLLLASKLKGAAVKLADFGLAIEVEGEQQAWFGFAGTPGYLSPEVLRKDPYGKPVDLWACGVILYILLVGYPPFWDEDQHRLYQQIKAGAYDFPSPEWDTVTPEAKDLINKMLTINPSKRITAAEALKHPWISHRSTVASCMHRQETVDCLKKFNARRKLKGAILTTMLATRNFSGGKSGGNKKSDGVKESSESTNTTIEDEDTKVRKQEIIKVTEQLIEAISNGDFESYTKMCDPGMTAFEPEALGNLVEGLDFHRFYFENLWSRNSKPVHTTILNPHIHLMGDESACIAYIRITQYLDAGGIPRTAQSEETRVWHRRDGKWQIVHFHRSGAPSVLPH
T5 sequence (Q9Y5S2 whole entry): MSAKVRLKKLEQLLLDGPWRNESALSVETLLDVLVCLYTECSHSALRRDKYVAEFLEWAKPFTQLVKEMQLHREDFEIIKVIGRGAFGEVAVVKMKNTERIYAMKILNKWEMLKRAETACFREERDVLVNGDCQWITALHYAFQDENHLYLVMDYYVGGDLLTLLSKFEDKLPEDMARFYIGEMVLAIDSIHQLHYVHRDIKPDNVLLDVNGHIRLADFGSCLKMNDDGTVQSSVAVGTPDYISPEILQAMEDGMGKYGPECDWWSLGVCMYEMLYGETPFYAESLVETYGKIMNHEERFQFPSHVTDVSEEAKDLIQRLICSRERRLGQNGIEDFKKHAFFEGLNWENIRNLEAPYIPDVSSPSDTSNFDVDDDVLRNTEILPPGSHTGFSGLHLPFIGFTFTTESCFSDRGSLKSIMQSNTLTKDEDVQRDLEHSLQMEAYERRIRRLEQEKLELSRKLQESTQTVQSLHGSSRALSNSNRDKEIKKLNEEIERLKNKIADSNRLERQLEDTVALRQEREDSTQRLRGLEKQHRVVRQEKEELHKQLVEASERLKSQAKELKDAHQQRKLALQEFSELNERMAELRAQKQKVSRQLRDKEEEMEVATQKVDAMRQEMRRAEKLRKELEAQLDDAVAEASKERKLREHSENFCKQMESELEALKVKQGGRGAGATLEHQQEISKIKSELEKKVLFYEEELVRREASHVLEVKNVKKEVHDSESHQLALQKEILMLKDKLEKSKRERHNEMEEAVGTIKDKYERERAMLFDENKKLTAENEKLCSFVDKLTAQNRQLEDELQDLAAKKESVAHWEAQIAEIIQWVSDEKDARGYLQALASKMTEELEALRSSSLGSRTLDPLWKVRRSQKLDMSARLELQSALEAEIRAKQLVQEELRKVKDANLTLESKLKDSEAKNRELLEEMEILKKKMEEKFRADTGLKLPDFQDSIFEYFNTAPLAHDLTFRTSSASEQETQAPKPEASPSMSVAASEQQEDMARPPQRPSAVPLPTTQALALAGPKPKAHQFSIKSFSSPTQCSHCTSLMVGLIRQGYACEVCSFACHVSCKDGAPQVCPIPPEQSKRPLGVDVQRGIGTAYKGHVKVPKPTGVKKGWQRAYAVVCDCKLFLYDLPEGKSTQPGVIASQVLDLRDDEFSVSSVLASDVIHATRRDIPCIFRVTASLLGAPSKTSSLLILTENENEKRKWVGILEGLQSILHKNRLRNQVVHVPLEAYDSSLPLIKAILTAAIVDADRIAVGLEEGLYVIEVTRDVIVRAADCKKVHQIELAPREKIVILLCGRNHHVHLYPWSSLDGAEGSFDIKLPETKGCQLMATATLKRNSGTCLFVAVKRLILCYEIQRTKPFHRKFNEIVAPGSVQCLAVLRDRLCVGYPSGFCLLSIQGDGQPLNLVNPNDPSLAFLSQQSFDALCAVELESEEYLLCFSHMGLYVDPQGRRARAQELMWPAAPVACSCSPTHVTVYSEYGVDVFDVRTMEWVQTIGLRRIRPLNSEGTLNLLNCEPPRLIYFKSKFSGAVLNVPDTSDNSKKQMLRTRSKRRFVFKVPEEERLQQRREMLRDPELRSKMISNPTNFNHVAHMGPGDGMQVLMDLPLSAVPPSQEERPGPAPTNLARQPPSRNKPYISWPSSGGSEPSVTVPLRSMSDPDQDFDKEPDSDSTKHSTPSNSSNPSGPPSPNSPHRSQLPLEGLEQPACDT
Sequence of PRKG2 (Q13237 whole entry): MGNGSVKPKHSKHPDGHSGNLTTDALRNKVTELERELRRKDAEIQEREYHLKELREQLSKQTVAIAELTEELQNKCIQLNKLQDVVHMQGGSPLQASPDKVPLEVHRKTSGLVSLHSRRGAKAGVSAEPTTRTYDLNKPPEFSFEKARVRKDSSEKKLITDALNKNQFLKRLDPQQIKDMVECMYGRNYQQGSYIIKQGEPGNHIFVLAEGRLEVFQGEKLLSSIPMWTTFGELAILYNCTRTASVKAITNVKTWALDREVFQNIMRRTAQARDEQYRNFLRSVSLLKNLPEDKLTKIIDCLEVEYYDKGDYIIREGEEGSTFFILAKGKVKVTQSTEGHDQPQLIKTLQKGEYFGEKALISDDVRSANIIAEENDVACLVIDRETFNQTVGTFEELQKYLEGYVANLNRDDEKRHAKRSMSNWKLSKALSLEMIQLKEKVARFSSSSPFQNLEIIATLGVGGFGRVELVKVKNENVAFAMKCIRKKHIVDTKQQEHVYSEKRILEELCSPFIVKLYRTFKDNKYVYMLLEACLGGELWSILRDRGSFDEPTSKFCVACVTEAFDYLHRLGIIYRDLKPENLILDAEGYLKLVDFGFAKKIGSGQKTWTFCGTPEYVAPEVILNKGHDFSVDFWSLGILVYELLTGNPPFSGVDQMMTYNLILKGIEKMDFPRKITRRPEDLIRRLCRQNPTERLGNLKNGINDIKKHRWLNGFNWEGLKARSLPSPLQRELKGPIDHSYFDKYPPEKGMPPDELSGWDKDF
Sequence of TGFBR1 (P36897 whole entry): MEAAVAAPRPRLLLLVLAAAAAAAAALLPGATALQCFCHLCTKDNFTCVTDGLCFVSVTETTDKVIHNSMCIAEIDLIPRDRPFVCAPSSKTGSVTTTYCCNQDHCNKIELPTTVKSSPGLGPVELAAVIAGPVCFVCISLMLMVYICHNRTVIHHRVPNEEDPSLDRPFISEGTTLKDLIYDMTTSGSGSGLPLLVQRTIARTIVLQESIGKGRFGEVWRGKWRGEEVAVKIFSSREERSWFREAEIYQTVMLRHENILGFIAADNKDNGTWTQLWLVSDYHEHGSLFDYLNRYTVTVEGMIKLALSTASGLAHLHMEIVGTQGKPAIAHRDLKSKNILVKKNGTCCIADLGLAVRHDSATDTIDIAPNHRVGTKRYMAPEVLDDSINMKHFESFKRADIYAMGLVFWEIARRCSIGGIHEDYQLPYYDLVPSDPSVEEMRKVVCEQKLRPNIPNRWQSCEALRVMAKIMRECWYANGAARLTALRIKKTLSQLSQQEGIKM
T6 sequence (Q9Y6E0 whole entry): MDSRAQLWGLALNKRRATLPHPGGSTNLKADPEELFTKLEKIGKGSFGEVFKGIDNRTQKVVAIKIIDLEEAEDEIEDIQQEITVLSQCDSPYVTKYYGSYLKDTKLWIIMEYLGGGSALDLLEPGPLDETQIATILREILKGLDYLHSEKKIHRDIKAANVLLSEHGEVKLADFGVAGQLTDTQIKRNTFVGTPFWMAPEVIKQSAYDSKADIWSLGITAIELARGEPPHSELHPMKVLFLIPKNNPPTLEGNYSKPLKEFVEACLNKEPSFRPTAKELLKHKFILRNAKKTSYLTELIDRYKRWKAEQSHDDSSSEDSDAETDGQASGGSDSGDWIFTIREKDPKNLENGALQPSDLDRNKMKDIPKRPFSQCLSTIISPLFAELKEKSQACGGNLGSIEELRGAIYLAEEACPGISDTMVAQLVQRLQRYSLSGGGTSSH
Sequence of CDK3 (Q00526 whole entry): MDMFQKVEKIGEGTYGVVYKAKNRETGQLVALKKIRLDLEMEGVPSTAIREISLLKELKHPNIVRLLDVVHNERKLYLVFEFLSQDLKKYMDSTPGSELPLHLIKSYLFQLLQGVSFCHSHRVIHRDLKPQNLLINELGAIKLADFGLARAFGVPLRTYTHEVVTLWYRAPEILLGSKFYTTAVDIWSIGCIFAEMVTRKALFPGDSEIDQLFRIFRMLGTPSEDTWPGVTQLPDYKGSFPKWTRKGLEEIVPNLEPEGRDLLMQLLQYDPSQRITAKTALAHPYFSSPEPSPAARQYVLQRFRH

SMILES: Cc1cn(-c2cc(NC(=O)c3ccc4c(c3)CN(c3cncnc3)C[C@@H]4C)cc(C(F)(F)F)c2)cn1 [Compound 6j]
- clearance [1]: 17.6 L/h/kg
- remaining binding at 1 µM [2]: 100%
- remaining binding at 1 µM [3]: 100%
- remaining binding at 1 µM [4]: 73%
- remaining activity at 1 µM [5]: 47%
- remaining activity at 1 µM [6]: 95%
- remaining activity at 1 µM [7]: 100%
- remaining activity at 1 µM [8]: 97%
- remaining activity at 1 µM [9]: 95%
- remaining activity at 1 µM [10]: 97%
- remaining activity at 1 µM [11]: 69%
- remaining activity at 1 µM [12]: 86%
- remaining activity at 1 µM [13]: 100%
- remaining activity at 1 µM [14]: 83%
- remaining activity at 1 µM [15]: 100%
- remaining activity at 1 µM [16]: 72%
- remaining activity at 1 µM [17]: 82%
- remaining activity at 1 µM [18]: 100%
- remaining activity at 1 µM [19]: 94%
- remaining activity at 1 µM [20]: 100%
- remaining activity at 1 µM [21]: 81%
- remaining activity at 1 µM [22]: 94%
- remaining activity at 1 µM [23]: 64%
- remaining activity at 1 µM [24]: 100%
- remaining activity at 1 µM [25]: 85%
- remaining activity at 1 µM [26]: 100%
- remaining activity at 1 µM [27]: 97%
- remaining activity at 1 µM [28]: 94%
- remaining activity at 1 µM [29]: 98%
- remaining activity at 1 µM [30]: 100%
- remaining activity at 1 µM [31]: 100%
- remaining activity at 1 µM [32]: 94%
- remaining activity at 1 µM [33]: 96%
- remaining activity at 1 µM [34]: 65%
